Measurements taken from patent US20240400584A1, “COMPOUNDS AND METHODS FOR MODULATING SPLICING” (REMIX THERAPEUTICS INC., priority 2021, published 2024).

Key:
HTT [1] = test: RT-qPCR splicing assay, HTT AJ/CJ mRNA; format: cell-based, human; conditions: Homo sapiens, 24 h, A673 or K562 cells; for IC50: decrease in canonical junction mRNA; for AC50: increase in alternative junction mRNA
Protocol: (§1) Compounds described herein were used to modulate RNA transcript abundance in cells. The expression of a target mRNA was measured by detecting the formation of an exon-exon junction in the canonical transcript (CJ). A compound mediated exon-inclusion event was detected by observing an increase in formation OF A new junction with an alternative exon (AJ). Real-time qPCR assays were used to detect these splicing switches and interrogate the potency of various compounds towards different target Genes. A high-throughput real time quantitative PCR (RT-qPCR) assay was developed to measure these two isoforms of the mRNA (CJ and AJ) for exemplary genes, such as HTT, SMN2, and MYB, together with a control housekeeping gene, GAPDH or GUSB or PPIA, used for normalization. Briefly, the A673 or K562 cell line was treated with various compounds described herein (e.g., compounds of Formula (i)). After treatment, the levels of the HTT, MYB, or SMN2 mRNA targets were determined from each sample of cell lysate by cDNA synthesis followed by qPCR.
(§2) The A673 cell line was cultured in DMEM with 10% FBS. Cells were diluted with full growth media and plated in a 96-well plate (15,000 cells in 100 ul media per well). The plate was incubated at 37° C. with 5% CO2 for 24 hours to allow cells to adhere. An 11-point 3-fold serial dilution of the compounds was made in DMSO then diluted in media in an intermediate plate. Compounds were transferred from the intermediate plate to the cell plate with the top dose at a final concentration of 10 uM in the well. Final DMSO concentration was kept at or below 0.25%. The cell plate was returned to the incubator at 37° C. with 5% CO2 for an additional 24 hours.
(§3) The K562 cell line was cultured in IMDM with 10% FBS. For K562, cells were diluted with full growth media and plated in either a 96-well plate (50,000 cells in 50 uL media per well) or a 384-well plate (8,000-40,000 cells in 45 uL media per well). An 11-point 3-fold serial dilution of the compounds were made in DMSO then diluted in media in an intermediate plate. Compound was transferred from the intermediate plate to the cell plate with the top dose at a final concentration of 10 uM in the well. Final DMSO concentration was kept at or below 0.25%. Final volume was 100 uL for 96-well plate and 50 uL for 384-well plate. The cell plate was then placed in an incubator at 37° C. with 5% CO2 for 24 hours.
(§4) The cells were then gently washed with 50 uL-100 uL Cold Pbs before proceeding to addition of lysis buffer. 30 uL-50 μL of room temperature lysis buffer with DNAse I (and optionally RNAsin) was added to each well. Cells were shaken/mixed thoroughly at room temperature for 5-10 minutes for lysis to take place and then 3 uL-5 μL of room temperature stop solution was added and wells were shaken/mixed again. After 2-5 minutes, the cell lysate plate was transferred to ice for RT-qPCR reaction setup. The lysates could also be frozen at −80° C. for later use.
(§5) In some cases, a direct lysis buffer was used. an appropriate volume of 3× lysis buffer (10 mM tRis, 150 mM NaCl, 1.5%-2.5% Igepal and 0.1-1 U/uL RNAsin, pH 7.4) was directly added to either K562 or A673 cells in media and mixed by pipetting 3 times. The plates were then incubated at room temperature with shaking/rocking for 20-50 minutes to allow for lysis to take place. After this time, the cell lysate plate was transferred to ice to set up for the RT-qPCR reactions. The lysates could also be frozen at −80° C. for later use.
(§6) To set up 10 uL RT-QpcR reactions, cell lysates were transferred to 384-well qPCR plates containing the master mix according to the table below. The plates were sealed, gently vortexed, and spun down before the run. The volumes were adjusted accordingly in some instances where the reaction was carried in 20 µL. The table below summarizes the components of the RT-qPCR reactions:
(§7) The RT-qPCR reaction was performed using a QuantStudio (ThermoFisher) under the following fast cycling conditions. […]

MYB [2] = test: RT-qPCR splicing assay, MYB AJ/CJ mRNA; format: cell-based; conditions: Homo sapiens, A673 or K562 cells, 24 hours; for IC50: decrease in canonical junction mRNA; for AC50: increase in alternative junction mRNA
Protocol: as §1, §2, §3, §4, §5, §6, §7

MYB [3] = test: Gene panel canonical junction qPCR assay, MYB CJ mRNA (Table 7); format: cell-based; conditions: Homo sapiens, read-out: MYB CJ mRNA decrease IC50
Protocol: as §1
(§8) The data analysis was performed by first determining the ΔCt vs the housekeeper gene. This ΔCt was then normalized against the DMSO control (ΔΔCt) and converted to RQ (relative quantification) using the 2^(−ΔΔCt) equation. The RQ were then converted to a percentage response by arbitrarily setting an assay window of 3.5 and 4.0 ΔCt for HTT-CJ and MYB-CJ respectively and an assay window of 9 and 3 ΔCt for HTT-AJ and MYB-AJ in 96 well format (50,000 K562 cells/well and 15,000 A673 cells per well) and an assay window of 3 and 4 ΔCt for HTT-CJ and MYB-CJ respectively and an assay window of 5 and 3 ΔCt for HTT-AJ and MYB-AJ respectively in 384 well format (8,000 K562 cells/well example). […] The percentage response was then fitted to the 4 parametric logistic equation to evaluate the concentration dependence of compound treatment. The increase in AJ mRNA is reported as AC50 (compound concentration having 50% response in AJ increase) while the decrease in CJ mRNA levels is reported as IC50 (compound concentration having 50% response in CJ decrease).
(§9) Additional studies were carried out for a larger panel of genes using the protocol provided above. The junction between flanking upstream and downstream exons was used to design canonical junction qPCR assays. At least one of the forward primer, reverse primer or the CY5-labeled 5′ nuclease probe (with 3′ quencher such as ZEN/Iowa Black FQ) was designed to overlap with the exon junction to capture the CJ mRNA transcript. BLAST was used to confirm the specificity of the probeset and parameters such as melting temperature, GC content, amplicon size, and primer dimer formation are considered during their design. Data for the decrease in CJ mRNA levels for four exemplary genes (HTT, SMN2, MYB, and Target C) analyzed in this panel are reported as IC50 (compound concentration having 50% response in CJ decrease).

SMN2 = test: Gene panel canonical junction qPCR assay, SMN2 CJ mRNA (Table 7); format: cell-based; conditions: Homo sapiens, read-out: SMN2 CJ mRNA decrease IC50
Protocol: as §1, §8, §9

Target C = test: Gene panel canonical junction qPCR assay, Target C CJ mRNA (Table 7); format: cell-based, human; conditions: Homo sapiens, read-out: Target C CJ mRNA decrease IC50
Protocol: as §1, §8, §9

HTT [4] = test: Gene panel canonical junction qPCR assay, HTT CJ mRNA (Table 7); format: cell-based, human; conditions: Homo sapiens, read-out: HTT CJ mRNA decrease IC50
Protocol: as §1, §8, §9

SMILES | IC50 (HTT [1]) [µM] | AC50 (HTT [1]) [µM] | IC50 (MYB [2]) [µM] | AC50 (MYB [2]) [µM] | IC50 (MYB [3]) [µM] | IC50 (SMN2) [µM] | IC50 (Target C) [µM] | IC50 (HTT [4]) [µM]
c1cnn(-c2ccc3c(c2)COc2nc(N4CCC5(CCNCC5)C4)ccc2-3)c1 [Compound 182] | > 10 | > 10 | > 10 | > 10 | > 10 | > 10 | > 10 | > 10
c1cnn(-c2ccc3c(c2)COc2nc(N4CCC5(CCCNC5)C4)ccc2-3)c1 (stereo not drawn) [Compound 183] | > 10 | > 10 | 1 to 10 | > 10 | 1 to 10 | 0.1 to 1 | > 10 | > 10
c1cnn(-c2ccc3c(c2)COc2nc(N4CCC5(CCNC5)CC4)ccc2-3)c1 [Compound 184] | 1 to 10 | 1 to 10 | 1 to 10 | 1 to 10 | 1 to 10 | 1 to 10 | 1 to 10 | 1 to 10
c1cnn(-c2ccc3c(c2)COc2nc(N4C[C@H]5CNC[C@H]5C4)ccc2-3)c1 [Compound 185] | > 10 | > 10 | > 10 | 1 to 10 | > 10 | 1 to 10 | > 10 | > 10
CC1(C)CC(Oc2ccc3c(n2)OCc2cc(-n4cccn4)ccc2-3)CCN1 (stereo not drawn) [Compound 186] | 1 to 10 | 1 to 10 | 1 to 10 | > 10 | 1 to 10 | 0.1 to 1 | > 10 | 1 to 10
c1cnn(-c2ccc3c(c2)COc2nc(OC4CCNCC4)ccc2-3)c1 [Compound 187] | 1 to 10 | > 10 | > 10 | > 10 | > 10 | 1 to 10 | > 10 | 1 to 10
c1cnn(-c2ccc3c(c2)COc2nc(O[C@@H]4C[C@H]5CC[C@@H](C4)N5)ccc2-3)c1 [Compound 188] | 0.1 to 1 | 0.1 to 1 | 1 to 10 | 1 to 10 | 1 to 10 | 0.1 to 1 | 1 to 10 | 0.1 to 1
CCN(c1ccc2c(n1)OCc1cc(-n3cccn3)ccc1-2)C1CC(C)(C)NC(C)(C)C1 [Compound 189] | > 10 | 1 to 10 | 1 to 10 | > 10 | 1 to 10 | 1 to 10 | > 10 | > 10
c1cnn(-c2ccc3c(c2)COc2nc(N[C@@H]4C[C@H]5CCC[C@@H](C4)N5)ccc2-3)c1 [Compound 190] | < 0.1 | 0.1 to 1 | 0.1 to 1 | 0.1 to 1 | 0.1 to 1 | < 0.1 | 0.1 to 1 | < 0.1
CCN(c1ccc2c(n1)OCc1cc(-n3cccn3)ccc1-2)[C@@H]1C[C@H]2CC[C@@H](C1)N2 [Compound 191] | 0.1 to 1 | 1 to 10 | 1 to 10 | > 10 | 1 to 10 | 0.1 to 1 | 1 to 10 | 0.1 to 1
c1cnn(-c2ccc3c(c2)COc2nc(N4CCCC5(CCNC5)C4)ccc2-3)c1 (stereo not drawn) [Compound 192] | > 10 | > 10 | > 10 | > 10 | > 10 | > 10 | > 10 | > 10
c1cnn(-c2ccc3c(c2)COc2nc(S[C@@H]4C[C@H]5CC[C@@H](C4)N5)ccc2-3)c1 [Compound 193] | > 10 | > 10 | 1 to 10 | > 10 | 1 to 10 | > 10 | > 10 | 1 to 10
CN1C[C@@H]2[C@H](C1)[C@H]2N(C)c1ccc2c(n1)OCc1cc(-n3cccn3)ccc1-2 [Compound 196] | > 10 | > 10 | > 10 | > 10 | > 10 | > 10 | > 10 | > 10
CN(C)[C@H]1[C@@H]2CN(c3ccc4c(n3)OCc3cc(-n5cccn5)ccc3-4)C[C@@H]21 [Compound 197] | 1 to 10 | > 10 | > 10 | 1 to 10 | > 10 | > 10 | > 10 | 1 to 10
c1cnn(-c2ccc3c(c2)COc2nc(O[C@@H]4C[C@H]5CCC[C@@H](C4)N5)ccc2-3)c1 [Compound 198] | 0.1 to 1 | 0.1 to 1 | 0.1 to 1 | 0.1 to 1 | 0.1 to 1 | 0.1 to 1 | 1 to 10 | 0.1 to 1
[2H]C([2H])([2H])N(c1ccc2c(n1)OCc1cc(-n3cccn3)ccc1-2)C1CC(C)(C)NC(C)(C)C1 [Compound 199] | 1 to 10 | 1 to 10 | > 10 | > 10 | > 10 | 1 to 10 | > 10 | 1 to 10
[2H]C([2H])([2H])N(c1ccc2c(n1)OCc1cc(-n3cccn3)ccc1-2)C1C[C@H]2CCC[C@@H](C1)N2 (stereo partly drawn) [Compound 200] | < 0.1 | < 0.1 | 0.1 to 1 | 0.1 to 1 | 0.1 to 1 | < 0.1 | 0.1 to 1 | < 0.1
[2H]C([2H])([2H])N(c1ccc2c(n1)OCc1cc(-n3cccn3)ccc1-2)[C@@H]1C[C@H]2CC[C@@H](C1)N2 [Compound 201] | 0.1 to 1 | 0.1 to 1 | 0.1 to 1 | 1 to 10 | 0.1 to 1 | < 0.1 | 0.1 to 1 | 0.1 to 1
